Experimental data reported in PMC5218480 (PLoS ONE, 2017).

Test system: MV-4-11 cells
Test: Gene expression microarray analysis (Affymetrix PrimeView) and GSEA
Assay type: cell-based, human
Parameters: RFU PODN (11730768_x_at) / Fold change /veh PODN (11730768_x_at) / RFU LINC00158 (11744669_a_at) / Fold change /veh LINC00158 (11744669_a_at) / RFU DUSP10 (11751237_a_at) / Fold change /veh DUSP10 (11751237_a_at) / RFU ID3 (11757404_x_at) / Fold change /veh ID3 (11757404_x_at) / RFU PLEKHG5 (11737974_s_at) / Fold change /veh PLEKHG5 (11737974_s_at) / RFU LRRC4B (11730491_at) / Fold change /veh LRRC4B (11730491_at) / RFU GIMAP4 (11747438_a_at) / Fold change /veh GIMAP4 (11747438_a_at) / RFU KRT8 (11758183_x_at) / Fold change /veh KRT8 (11758183_x_at) / RFU CNN1 (11734310_a_at) / Fold change /veh CNN1 (11734310_a_at) / RFU VPS37D (11726825_at) / Fold change /veh VPS37D (11726825_at) / RFU C10orf10 (11716522_x_at) / Fold change /veh C10orf10 (11716522_x_at) / RFU KIR2DL2 /// KIR2DL4 /// KIR2DL5A /// KIR2DL5B /// KIR2DS1 /// KIR2DS2 /// KIR2DS3 /// KIR2DS4 /// KIR3DL3 /// KIR3DL3 /// KIR3DS1 (11738374_at) / Fold change /veh KIR2DL2 /// KIR2DL4 /// KIR2DL5A /// KIR2DL5B /// KIR2DS1 /// KIR2DS2 /// KIR2DS3 /// KIR2DS4 /// KIR3DL3 /// KIR3DL3 /// KIR3DS1 (11738374_at) / RFU C1QL1 (11718748_at) / Fold change /veh C1QL1 (11718748_at) / RFU TMPRSS4 (11747572_a_at) / Fold change /veh TMPRSS4 (11747572_a_at) / RFU HAMP (11756126_x_at) / Fold change /veh HAMP (11756126_x_at) / RFU RNFT2 (11725882_a_at) / Fold change /veh RNFT2 (11725882_a_at) / RFU NR4A2 (11747474_a_at) / Fold change /veh NR4A2 (11747474_a_at) / RFU ABCC12 (11746883_a_at) / Fold change /veh ABCC12 (11746883_a_at) / RFU TMEM136 (11760407_x_at) / Fold change /veh TMEM136 (11760407_x_at) / RFU CLDN22 /// WWC2 (11732394_at) / Fold change /veh CLDN22 /// WWC2 (11732394_at) / RFU HLA-DPB1 (11760878_x_at) / Fold change /veh HLA-DPB1 (11760878_x_at) / RFU SPINT1 (11716480_a_at) / Fold change /veh SPINT1 (11716480_a_at) / RFU GAP43 (11754022_s_at) / Fold change /veh GAP43 (11754022_s_at) / RFU A4GNT (11735810_at) / Fold change /veh A4GNT (11735810_at) / RFU PRB3 (11715151_x_at) / Fold change /veh PRB3 (11715151_x_at) / RFU TUBB4B (11761932_at) / Fold change /veh TUBB4B (11761932_at) / RFU CAPN14 (11732068_a_at) / Fold change /veh CAPN14 (11732068_a_at) / RFU TMCC2 (11721928_a_at) / Fold change /veh TMCC2 (11721928_a_at) / RFU IRGQ (11745062_a_at) / Fold change /veh IRGQ (11745062_a_at) / RFU FAM174B (11720279_a_at) / Fold change /veh FAM174B (11720279_a_at) / RFU TMPRSS4 (11748680_a_at) / Fold change /veh TMPRSS4 (11748680_a_at) / RFU FAM212B (11763350_a_at) / Fold change /veh FAM212B (11763350_a_at) / RFU PLEKHG5 (11743358_a_at) / Fold change /veh PLEKHG5 (11743358_a_at) / RFU ZSCAN30 (11745921_a_at) / Fold change /veh ZSCAN30 (11745921_a_at) / RFU CMKLR1 (11741424_a_at) / Fold change /veh CMKLR1 (11741424_a_at) / RFU LOC101060620 /// MAPK8IP1 (11723275_at) / Fold change /veh LOC101060620 /// MAPK8IP1 (11723275_at) / RFU SPTSSB (11747773_x_at) / Fold change /veh SPTSSB (11747773_x_at) / RFU PRSS12 (11739890_at) / Fold change /veh PRSS12 (11739890_at) / RFU BIN1 (11741810_x_at) / Fold change /veh BIN1 (11741810_x_at) / RFU WNT11 (11732464_a_at) / Fold change /veh WNT11 (11732464_a_at) / RFU C10orf10 (11716521_a_at) / Fold change /veh C10orf10 (11716521_a_at) / RFU C5orf56 (11738089_at) / Fold change /veh C5orf56 (11738089_at) / RFU CYB561 (11721691_x_at) / Fold change /veh CYB561 (11721691_x_at) / RFU ANKRD19P (11752326_a_at) / Fold change /veh ANKRD19P (11752326_a_at) / RFU OR2T12 /// OR2T33 /// OR2T8 (11738714_s_at) / Fold change /veh OR2T12 /// OR2T33 /// OR2T8 (11738714_s_at) / RFU VCAN (11748164_a_at) / Fold change /veh VCAN (11748164_a_at) / RFU JSRP1 (11732532_at) / Fold change /veh JSRP1 (11732532_at) / RFU KRTAP10-11 (11738290_x_at) / Fold change /veh KRTAP10-11 (11738290_x_at) / RFU MYO3A (11730013_a_at) / Fold change /veh MYO3A (11730013_a_at) / RFU EBF3 (11725865_a_at) / Fold change /veh EBF3 (11725865_a_at) / RFU CAMK2N1 (11719241_x_at) / Fold change /veh CAMK2N1 (11719241_x_at) / RFU C5orf56 (11738088_a_at) / Fold change /veh C5orf56 (11738088_a_at) / RFU OLFML3 (11715873_a_at) / Fold change /veh OLFML3 (11715873_a_at) / RFU LOC100653217 /// NTM (11731650_a_at) / Fold change /veh LOC100653217 /// NTM (11731650_a_at) / RFU MAPK11 (11762145_a_at) / Fold change /veh MAPK11 (11762145_a_at) / RFU FIZ1 (11724087_x_at) / Fold change /veh FIZ1 (11724087_x_at) / RFU OASL (11726364_x_at) / Fold change /veh OASL (11726364_x_at) / RFU SOX15 (11748057_x_at) / Fold change /veh SOX15 (11748057_x_at) / RFU CD79A (11719716_a_at) / Fold change /veh CD79A (11719716_a_at) / RFU HIST1H1D (11736915_at) / Fold change /veh HIST1H1D (11736915_at) / RFU CASKIN2 (11723855_a_at) / Fold change /veh CASKIN2 (11723855_a_at) / RFU LOC730098 (11760151_x_at) / Fold change /veh LOC730098 (11760151_x_at) / RFU OR4N2 (11742367_at) / Fold change /veh OR4N2 (11742367_at) / RFU PRRT2 (11749266_a_at) / Fold change /veh PRRT2 (11749266_a_at) / RFU SNX32 (11753110_a_at) / Fold change /veh SNX32 (11753110_a_at) / RFU CDHR5 (11726645_a_at) / Fold change /veh CDHR5 (11726645_a_at) / RFU RCAN1 (11760418_a_at) / Fold change /veh RCAN1 (11760418_a_at) / RFU FAM167A (11723789_a_at) / Fold change /veh FAM167A (11723789_a_at) / RFU FAM26E (11764081_at) / Fold change /veh FAM26E (11764081_at) / RFU ISYNA1 (11749810_s_at) / Fold change /veh ISYNA1 (11749810_s_at) / RFU ACY1 (11761880_at) / Fold change /veh ACY1 (11761880_at) / RFU 11764098_at / Fold change /veh 11764098_at / RFU SAMD14 (11745864_x_at) / Fold change /veh SAMD14 (11745864_x_at) / RFU NPB (11741838_a_at) / Fold change /veh NPB (11741838_a_at) / RFU TMPRSS6 (11731388_a_at) / Fold change /veh TMPRSS6 (11731388_a_at) / RFU KRTAP10-2 (11738614_at) / Fold change /veh KRTAP10-2 (11738614_at) / RFU ARHGAP8 /// PRR5-ARHGAP8 (11727945_x_at) / Fold change /veh ARHGAP8 /// PRR5-ARHGAP8 (11727945_x_at) / RFU KRTAP5-7 /// NADSYN1 (11734609_at) / Fold change /veh KRTAP5-7 /// NADSYN1 (11734609_at) / RFU RASL12 (11751679_a_at) / Fold change /veh RASL12 (11751679_a_at) / RFU CDKN2B (11736163_a_at) / Fold change /veh CDKN2B (11736163_a_at) / RFU PRF1 (11729649_at) / Fold change /veh PRF1 (11729649_at) / RFU, ZNF638 /// ZNF638-IT1 / Fold change vs veh, ZNF638 /// ZNF638-IT1 / RFU, PANK3 / Fold change vs veh, PANK3 / RFU, SH3YL1 / Fold change vs veh, SH3YL1 / RFU, ZEB2 / Fold change vs veh, ZEB2 / RFU, NRIP1 / Fold change vs veh, NRIP1 / RFU, PTTG1IP / Fold change vs veh, PTTG1IP / RFU, CAPN2 / Fold change vs veh, CAPN2 / RFU, MED14 / Fold change vs veh, MED14 / RFU, SNORA58 / Fold change vs veh, SNORA58 / RFU, C1orf63 / Fold change vs veh, C1orf63 / RFU, LRRFIP1 / Fold change vs veh, LRRFIP1 / RFU, NDUFAF7 / Fold change vs veh, NDUFAF7 / RFU, SLC12A2 / Fold change vs veh, SLC12A2 / RFU, IBTK / Fold change vs veh, IBTK / RFU, ESF1 / Fold change vs veh, ESF1 / Fold change vs veh, TMEM50B / RFU, TAOK1 / Fold change vs veh, TAOK1 / RFU, ACBD3 / Fold change vs veh, ACBD3 / RFU, TMA16 / Fold change vs veh, TMA16 / RFU, RWDD3 / Fold change vs veh, RWDD3 / RFU, BCAT1 / Fold change vs veh, BCAT1 / RFU, EDEM3 / Fold change vs veh, EDEM3 / RFU, TMEM33 / Fold change vs veh, TMEM33 / RFU, WDR75 / Fold change vs veh, WDR75 / RFU, AHCTF1 / Fold change vs veh, AHCTF1 / RFU, TFRC / Fold change vs veh, TFRC / RFU, ZDHHC17 / Fold change vs veh, ZDHHC17 / RFU, NOM1 / Fold change vs veh, NOM1 / RFU, ARL8B / Fold change vs veh, ARL8B / RFU, ZBTB11 / Fold change vs veh, ZBTB11 / RFU, TAMM41 / Fold change vs veh, TAMM41 / RFU, KIAA1704 /// LOC100996395 / Fold change vs veh, KIAA1704 /// LOC100996395 / RFU, ING1 / Fold change vs veh, ING1 / RFU, TRMT61B / Fold change vs veh, TRMT61B / RFU, FUBP3 / Fold change vs veh, FUBP3 / RFU, TP53 / Fold change vs veh, TP53 / RFU, TNKS2 / Fold change vs veh, TNKS2 / RFU, ZFP14 / Fold change vs veh, ZFP14 / RFU, ACTR2 / Fold change vs veh, ACTR2 / RFU, PPP3R1 / Fold change vs veh, PPP3R1 / RFU, PIK3R1 / Fold change vs veh, PIK3R1 / RFU, HNRNPA1 / Fold change vs veh, HNRNPA1 / RFU, RNF170 / Fold change vs veh, RNF170 / RFU, ZNF28 / Fold change vs veh, ZNF28 / RFU, RNGTT / Fold change vs veh, RNGTT / RFU, OGT / Fold change vs veh, OGT / RFU, BRD1 / Fold change vs veh, BRD1 / RFU, MARS / Fold change vs veh, MARS / RFU, ZNF655 / Fold change vs veh, ZNF655 / RFU, FAHD1 / Fold change vs veh, FAHD1 / RFU, BDP1 / Fold change vs veh, BDP1 / RFU, LRRCC1 / Fold change vs veh, LRRCC1 / RFU, ARID1A / Fold change vs veh, ARID1A / RFU, ZNF146 / Fold change vs veh, ZNF146 / RFU, ZNF330 / Fold change vs veh, ZNF330 / RFU, GPN3 / Fold change vs veh, GPN3 / RFU, C9orf123 / Fold change vs veh, C9orf123 / RFU, N4BP2L2 / Fold change vs veh, N4BP2L2 / RFU, ARFIP1 / Fold change vs veh, ARFIP1 / RFU, FAM179B / Fold change vs veh, FAM179B / RFU, BCL10 / Fold change vs veh, BCL10 / RFU, UHRF1BP1L / Fold change vs veh, UHRF1BP1L / RFU, BET1 / Fold change vs veh, BET1 / RFU, CNOT2 / Fold change vs veh, CNOT2 / RFU, ZNF268 / Fold change vs veh, ZNF268 / Fold change vs veh, ZNF507 / RFU, DGCR2 / Fold change vs veh, DGCR2 / RFU, WDSUB1 / Fold change vs veh, WDSUB1 / Fold change vs veh, HSP90B1 /// MIR3652 / RFU, ADSS / Fold change vs veh, ADSS / RFU, GK / Fold change vs veh, GK / RFU, ZNF148 / Fold change vs veh, ZNF148 / RFU, TAF9 / Fold change vs veh, TAF9 / RFU, SLC1A5 / Fold change vs veh, SLC1A5 / RFU, SLMO2 / Fold change vs veh, SLMO2 / RFU, ABCC4 / Fold change vs veh, ABCC4 / RFU, LOC101060439 /// RAP1B / Fold change vs veh, LOC101060439 /// RAP1B / RFU, RFX7 / Fold change vs veh, RFX7 / RFU, GTPBP10 / Fold change vs veh, GTPBP10 / RFU, CNEP1R1 / Fold change vs veh, CNEP1R1 / RFU, BIVM-ERCC5 /// ERCC5 / Fold change vs veh, BIVM-ERCC5 /// ERCC5 / RFU, ILF3 / Fold change vs veh, ILF3 / RFU 11762660_at / Fold change /veh 11762660_at / RFU VCAN (11757783_s_at) / Fold change /veh VCAN (11757783_s_at) / RFU DDX43 (11728927_at) / Fold change /veh DDX43 (11728927_at) / RFU KRT8 (11758188_x_at) / Fold change /veh KRT8 (11758188_x_at) / RFU NKD1 (11759106_at) / Fold change /veh NKD1 (11759106_at) / RFU SRD5A1 (11742802_a_at) / Fold change /veh SRD5A1 (11742802_a_at) / RFU TPSAB1 /// TPSB2 (11721975_s_at) / Fold change /veh TPSAB1 /// TPSB2 (11721975_s_at) / RFU GSTM3 (11746129_a_at) / Fold change /veh GSTM3 (11746129_a_at) / RFU IL23R (11737362_x_at) / Fold change /veh IL23R (11737362_x_at) / RFU TMEM51 (11727254_a_at) / Fold change /veh TMEM51 (11727254_a_at) / RFU PIWIL2 (11732686_x_at) / Fold change /veh PIWIL2 (11732686_x_at) / RFU ORM1 (11744905_x_at) / Fold change /veh ORM1 (11744905_x_at) / RFU CCDC152 (11743942_at) / Fold change /veh CCDC152 (11743942_at) / RFU ECM1 (11717891_a_at) / Fold change /veh ECM1 (11717891_a_at) / RFU IL23R (11748794_a_at) / Fold change /veh IL23R (11748794_a_at) / RFU TNFAIP8L3 (11732012_x_at) / Fold change /veh TNFAIP8L3 (11732012_x_at) / RFU MBOAT4 (11741988_at) / Fold change /veh MBOAT4 (11741988_at) / RFU 11764193_at / Fold change /veh 11764193_at / RFU TMEM53 (11763286_at) / Fold change /veh TMEM53 (11763286_at) / RFU MAGEB2 (11727129_at) / Fold change /veh MAGEB2 (11727129_at) / RFU TMEM200A (11744735_a_at) / Fold change /veh TMEM200A (11744735_a_at) / RFU CCDC152 (11751479_a_at) / Fold change /veh CCDC152 (11751479_a_at) / RFU FAM211A (11726209_a_at) / Fold change /veh FAM211A (11726209_a_at) / RFU RGS16 (11746705_a_at) / Fold change /veh RGS16 (11746705_a_at) / RFU VCAN (11755009_s_at) / Fold change /veh VCAN (11755009_s_at) / RFU RHOB (11743442_s_at) / Fold change /veh RHOB (11743442_s_at) / RFU RGS16 (11720943_a_at) / Fold change /veh RGS16 (11720943_a_at) / RFU RGS16 (11720944_at) / Fold change /veh RGS16 (11720944_at) / RFU, VPS4B / Fold change vs veh, VPS4B / RFU, CREB1 / Fold change vs veh, CREB1 / RFU, DNAJC13 / Fold change vs veh, DNAJC13 / RFU, GNAQ / Fold change vs veh, GNAQ / RFU, CDK5R1 / Fold change vs veh, CDK5R1 / RFU, ZRANB3 / Fold change vs veh, ZRANB3 / RFU, CUL4A / Fold change vs veh, CUL4A / RFU, CCNY / Fold change vs veh, CCNY / RFU, UFL1 / Fold change vs veh, UFL1 / RFU, COG3 / Fold change vs veh, COG3 / RFU, DIAPH2 / Fold change vs veh, DIAPH2 / RFU, SKA2 / Fold change vs veh, SKA2 / RFU, AFF3 / Fold change vs veh, AFF3 / RFU, LMF1 / Fold change vs veh, LMF1 / RFU, IPO11 / Fold change vs veh, IPO11 / RFU, DFFB / Fold change vs veh, DFFB / RFU, FOXP1 / Fold change vs veh, FOXP1 / RFU, CARD8 / Fold change vs veh, CARD8 / RFU, STRN3 / Fold change vs veh, STRN3 / RFU, ADK / Fold change vs veh, ADK / RFU, RASSF2 / Fold change vs veh, RASSF2 / RFU, WIPF1 / Fold change vs veh, WIPF1 / RFU, LARP1B / Fold change vs veh, LARP1B / RFU, RASA1 / Fold change vs veh, RASA1 / RFU, RB1 / Fold change vs veh, RB1 / RFU, PPFIA1 / Fold change vs veh, PPFIA1 / RFU, MAT2A / Fold change vs veh, MAT2A / RFU, CCT5 / Fold change vs veh, CCT5 / RFU, WDR92 / Fold change vs veh, WDR92 / RFU, CUX1 / Fold change vs veh, CUX1 / RFU, TTC7A / Fold change vs veh, TTC7A / RFU, TMEM135 / Fold change vs veh, TMEM135 / RFU, DEPTOR / Fold change vs veh, DEPTOR / RFU, CPM / Fold change vs veh, CPM / RFU, DNAJB6 / Fold change vs veh, DNAJB6 / RFU, CACNA2D3 / Fold change vs veh, CACNA2D3 / RFU, DTX4 / Fold change vs veh, DTX4 / RFU, TFCP2 / Fold change vs veh, TFCP2 / RFU, GMCL1 /// GMCL1P1 / Fold change vs veh, GMCL1 /// GMCL1P1 / RFU, AEBP2 / Fold change vs veh, AEBP2 / RFU, SNHG1 /// SNORD22 /// SNORD25 /// SNORD26 /// SNORD27 /// SNORD28 /// SNORD29 /// SNORD31 / Fold change vs veh, SNHG1 /// SNORD22 /// SNORD25 /// SNORD26 /// SNORD27 /// SNORD28 /// SNORD29 /// SNORD31 / Fold change (Aza/veh), C12orf56 (ProbeSet 11735607_a_at) / Fold change (ACY-1035/veh), C12orf56 (ProbeSet 11735607_a_at) / Fold change (Aza/veh), FGFR1OP (ProbeSet 11751329_s_at) / Fold change (ACY-1035/veh), FGFR1OP (ProbeSet 11751329_s_at) / Fold change (Aza/veh), VPS36 (ProbeSet 11739960_a_at) / Fold change (ACY-1035/veh), VPS36 (ProbeSet 11739960_a_at) / RFU SYPL1 (11715823_x_at) / Fold change /veh SYPL1 (11715823_x_at) / RFU IGFBP7 (11715501_s_at) / Fold change /veh IGFBP7 (11715501_s_at) / RFU REEP3 (11722064_at) / Fold change /veh REEP3 (11722064_at) / RFU IGLL1 (11728026_x_at) / Fold change /veh IGLL1 (11728026_x_at): dose or concentration left out as unconfirmed
Details: ProbeSet 11728879_at; LIST B

Nc1ncn([C@@H]2O[C@H](CO)[C@@H](O)[C@H]2O)c(=O)n1 [azacitidine]
RFU, PPP3R1: 331.25 RFU
